Test results as given in patent US20060122179A1, “Methods and compositions using JNK inhibitors for treatment and management of central nervous system injury” (priority 2004, published 2006).

Columns and labels:
[1] = system: rat ventral mesencephalan dopaminergic neurons; experiment: [3H]Dopamine cell culture assay (6-OHDA neurotoxicity); type: cell-based; settings: 6-OHDA 30 μM, uptake 22 hrs after exposure
Method: Cultures of dopaminergic neurons were prepared according to a modification of the procedure described by Raymon and Leslie (J. Neurochem. 62:1015-1024, 1994). Time-mated pregnant rats were sacrificed on embyronic day 14-15 (crown rump length 11-12 mm) and the embryos removed by cesarean section. The ventral mesencephalon, containing the dopaminergic neurons, was dissected from each embryo. Tissue pieces from approximately 48 embryos were pooled and dissociated both enzymatically and mechanically. An aliquot from the resulting cell suspension was counted and the cells were plated in high glucose DMEM/F12 culture medium with 10% fetal bovine serum at a density of 1×10^5 cells/well of a Biocoat poly-D-lysine-coated 96-well plate. The day following plating was considered 1 day in vitro (DIV). Cells were maintained in a stable environment at 37° C., 95% humidity, and 5% CO2. A partial medium change was performed at 3 DIV. […]
[^3H]Dopamine uptake is used as a measure of the health and integrity of dopaminergic neurons in culture (Prochiantz et al., PNAS 76: 5387-5391, 1979). […] Briefly, cells treated with 6-OHDA in the presence and absence of 5-amino-anthra(9,1-cd)isothiazol-6-one were assessed in the uptake assay 22 hrs after exposure to 6-OHDA. […] Radioactivity was removed and the cultures were washed 3× with ice cold PBS. […]

[2] = Brain-blood plasma distribution in vivo; design: species or system Sprague-Dawley rats; settings: rat, 10 mg/kg intravenously, 2 hr post-dose
Method: 5-Amino-anthra(9,1-cd)isothiazol-6-one was administered intravenously (10 mg/kg) into the veins of Sprague-Dawley rats. After 2 hr, blood samples were obtained from the animals and their vascular systems were perfused with approximately 100 mL of saline to rid their brains of blood. The brains were removed from the animals, weighed, and homogenized in a 50 mL conical tube containing 10 equivalents (w/v) of methanol/saline (1:1) using a Tissue Tearer (Fischer Scientific). The homogenized material was extracted by adding 600 μL of cold methanol to 250 μL of brain homogenate vortexed for 30 sec and subjected to centrifugation for 5 min. After centrifugation, 600 μL of the resulting supernatant was transferred to a clean tube and evaporated at room temperature under reduced pressure to provide a pellet. […] The brain homogenate analysis samples, plasma analysis samples, and standard analysis samples were analyzed and compared using HPLC by injecting 100 μL of a sample onto a 5 μm C-18 Luna column (4.6 mm×150 mm, commercially available from Phenomenex of Torrance, Calif.) and eluting at 1 mL/min with a linear gradient of 30% aqueous acetonitrile containing 0.1% trifluoroacetic acid to 90% aqueous acetonitrile containing 0.1% trifluoroacetic acid over 8 minutes and holding at 90% aqueous acetonitrile containing 0.1% trifluoroacetic acid for 3 min. with absorbance detection at 450 nm. […]

[3] = Solubility in aqueous media (remark); type: physicochemical

- brain-drug concentration [2]: approximately 65 nmole/g
- solubility in aqueous media [3]: limited solubility
SMILES: Nc1ccc2snc3c2c1C(=O)c1ccccc1-3 [5-amino-anthra(9,1-cd)isothiazol-6-one]
- protection of dopaminergic neurons from 6-OHDA ([3H]dopamine uptake) [1]: protects rat ventral mesencephalan neurons from the toxic effects of 6-OHDA
